This passage reports viscosity, mass density and Triple point temperature results from the NIST ThermoML archive (doi:10.1021/acs.jced.5b00988).

Data set [1] is described as follows: wn = mass fraction of the nth substance listed. As to conditions: 298.15 K, 102.5 kPa, Liquid; for viscosity: Concentric cylinders viscometry; for mass density: Vibrating tube method.
For data set [2] the following is noted: Crystal; visual observation.

For orientation: viscosity means the resistance of a fluid to flow. As usually defined, the mass density is the mass of a sample divided by its volume.

“And” between values parts separate entries of the source, which are not always exact repeats. Equal entries are not always repeated. ± gives the expanded uncertainty stated by the source.

For the compound `[Cl-].[Na+]` [sodium chloride] + O, in data set [1] (w1 = 0.2642), the viscosity was 1.5 ± 0.03 mPa·s and 1.7 ± 0.04 mPa·s; the mass density is 1194 ± 2 kg/m3 and 1214 ± 2 kg/m3.

In the case of `O=[PH2][O-].[Na+]` [sodium phosphinate] + O, in data set [1] (w1 = 0.5196), the viscosity was determined as 17.6 ± 0.38 mPa·s and the mass density is given as 1394 ± 3 kg/m3.

Turning to `O=[PH2][O-].O=[PH2][O-].[Zn+2]` [zinc(II) phosphinate], the Triple point temperature in data set [2] worked out at 446.15 ± 5 K.

Regarding `O=[PH2][O-].O=[PH2][O-].[Zn+2]` [zinc(II) phosphinate] + O, in data set [1] (w2 = 0.5196), the viscosity was found to be 2.04 ± 0.04 mPa·s. In addition, the mass density in data set [1] (w1 = 0.1861) worked out at 1157 ± 2 kg/m3.
